Assay results as given in patent US11578079B2, “SUMO inhibitor compounds and uses thereof” (CITY OF HOPE, priority 2018, dated 2023).

Target: T1, SUMO (Homo sapiens, UniProt Q9UBT2)
T1 sequence (Q9UBT2 1-640): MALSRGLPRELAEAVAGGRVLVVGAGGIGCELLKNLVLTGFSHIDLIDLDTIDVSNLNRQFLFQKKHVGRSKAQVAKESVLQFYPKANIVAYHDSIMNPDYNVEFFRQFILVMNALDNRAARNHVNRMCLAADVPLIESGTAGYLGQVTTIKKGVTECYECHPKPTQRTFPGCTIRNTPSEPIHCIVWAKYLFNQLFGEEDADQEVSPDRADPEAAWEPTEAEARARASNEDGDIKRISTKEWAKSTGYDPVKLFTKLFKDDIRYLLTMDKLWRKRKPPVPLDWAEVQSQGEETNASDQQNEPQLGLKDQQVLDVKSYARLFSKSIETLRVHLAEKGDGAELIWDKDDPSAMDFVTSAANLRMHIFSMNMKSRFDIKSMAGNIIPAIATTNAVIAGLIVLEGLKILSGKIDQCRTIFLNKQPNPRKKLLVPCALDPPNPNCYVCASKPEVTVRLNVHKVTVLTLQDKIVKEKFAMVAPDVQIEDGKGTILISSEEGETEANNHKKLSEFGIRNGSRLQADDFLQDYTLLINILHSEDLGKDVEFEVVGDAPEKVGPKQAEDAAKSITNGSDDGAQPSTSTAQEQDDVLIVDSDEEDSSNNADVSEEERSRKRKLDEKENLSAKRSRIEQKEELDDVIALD
T1 sequence (Q9UBE0 1-346 partner): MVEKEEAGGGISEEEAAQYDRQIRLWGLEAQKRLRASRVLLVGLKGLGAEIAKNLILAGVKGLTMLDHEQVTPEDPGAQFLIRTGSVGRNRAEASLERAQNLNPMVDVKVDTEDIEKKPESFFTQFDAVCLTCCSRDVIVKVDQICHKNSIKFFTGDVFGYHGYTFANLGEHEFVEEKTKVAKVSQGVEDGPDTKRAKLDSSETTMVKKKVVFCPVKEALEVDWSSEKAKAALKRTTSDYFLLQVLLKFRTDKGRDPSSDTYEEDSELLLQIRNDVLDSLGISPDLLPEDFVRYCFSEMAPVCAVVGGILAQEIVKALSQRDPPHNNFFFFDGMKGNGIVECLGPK
Assay: SUMO activity (Table I, biological activities)
Assay type: biochemical
Design: key: + (less active); ++ (active); +++ (most active)

| SUMO | Structure (SMILES) |
| --- | --- |
| ++ | CCCNC(=O)C1=C(C(=O)OC)C2(C(Cc3ccccc3)Nc3ccccc3)C=CC1O2 (stereo not drawn) [Compound 150] |
| ++ | COC(=O)C1=C(C(=O)NCCO)C2C=CC1(C(Cc1ccccc1)Nc1ccccc1)O2 (stereo not drawn) [Compound 152] |
| ++ | COC(=O)C1=C(C(=O)NC(C)C)C2C=CC1(C(Cc1ccccc1)Nc1ccccc1)O2 (stereo not drawn) [Compound 153] |
| + | COC(=O)C1=C(C(=O)N(C)C)C2C=CC1(C(Cc1ccccc1)Nc1ccccc1)O2 (stereo not drawn) [Compound 154] |
| ++ | C#CCNC(=O)C1=C(C(=O)OC)C2(C(Cc3ccccc3)Nc3ccccc3)C=CC1O2 (stereo not drawn) [Compound 155] |
| + | CCCNC(=O)C1=C(C(=O)NCCC)C2(C(Cc3ccccc3)Nc3ccccc3)C=CC1O2 (stereo not drawn) [Compound 157] |
| + | CC(C)NC(=O)C1=C(C(=O)NC(C)C)C2(C(Cc3ccccc3)Nc3ccccc3)C=CC1O2 (stereo not drawn) [Compound 159] |
| + | COC(=O)C1=C(C(=O)N2CCN(C)CC2)C2C=CC1(C(Cc1ccccc1)Nc1ccccc1)O2 (stereo not drawn) [Compound 164] |
| + | O=C(O)C1=C(C(=O)Nc2ccccc2)C2C=CC1(C(Cc1ccccc1)Nc1ccccc1)O2 (stereo not drawn) [Compound 174] |
| + | COc1ccc(NC(=O)C2=C(C(=O)O)C3(C(Cc4ccccc4)Nc4ccccc4)C=CC2O3)cc1 (stereo not drawn) [Compound 175] |
| ++ | C=CC(C)(C)C(Nc1ccccc1)C12C=CC(O1)C(C(=O)OC)=C2C(=O)OC (stereo not drawn) [Compound 188] |
| ++ | COC(=O)C1=C(C(=O)OC)C2(C(Nc3ccccc3)C3CCOCC3)C=CC1O2 (stereo not drawn) [Compound 192] |
| + | COC(=O)C1=C(C(=O)OC)C2(C(CCCN3CCOCC3)Nc3ccccc3)C=CC1O2 (stereo not drawn) [Compound 193] |
| ++ | COC(=O)C1=C(C(=O)Nc2ccc(OC)cc2)C2C=CC1(C(Cc1ccccc1)Nc1ccccc1)O2 (stereo not drawn) [Compound 194] |
| + | COC(=O)C1=C(C(=O)Nc2ccc(OC(F)(F)F)cc2)C2C=CC1(C(Cc1ccccc1)Nc1ccccc1)O2 (stereo not drawn) [Compound 196] |
| ++ | COC(=O)C1=C(C(=O)Nc2ccn(C)n2)C2C=CC1(C(Cc1ccccc1)Nc1ccccc1)O2 (stereo not drawn) [Compound 197] |
| + | COC(=O)C1=C(C(=O)NC2CCN(C(=O)OC(C)(C)C)CC2)C2C=CC1(C(Cc1ccccc1)Nc1ccccc1)O2 (stereo not drawn) [Compound 198] |
| ++ | COC(=O)C1=C(C(=O)Nc2ccc(OC)nc2)C2C=CC1(C(Cc1ccccc1)Nc1ccccc1)O2 (stereo not drawn) [Compound 199] |
| + | NC(=O)C1=C(C(N)=O)C2(C(Cc3ccccc3)Nc3ccccc3)C=CC1O2 (stereo not drawn) [Compound 202] |
| ++ | COC(=O)C1=C(C(=O)O)C2C=CC1(C(Cc1ccccc1)Nc1cc(F)cc(F)c1)O2 (stereo not drawn) [Compound 203] |
| + | COC(=O)C1=C(C(=O)Nc2ccncc2)C2C=CC1(C(Cc1ccccc1)Nc1cc(F)cc(F)c1)O2 (stereo not drawn) [Compound 206] |

| SUMO | Structure (SMILES) |
| --- | --- |
| + | COC(=O)C1=C(C(N)=O)C2C=CC1(C(Cc1ccccc1)Nc1cc(F)cc(F)c1)O2 (stereo not drawn) [Compound 207] |
| +++ | CCCCC(Nc1ccccc1)C12C=CC(O1)C(C(=O)OC)=C2C(=O)OC (stereo not drawn) [Compound 210] |
| +++ | COC(=O)C1=C(C(=O)NCCN2CCOCC2)C2C=CC1(C(Cc1ccccc1)Nc1ccccc1)O2 (stereo not drawn) [Compound 222] |
| ++ | COC(=O)C1=C(C(=O)OC)C2(C(Cc3ccccc3)Nc3c(F)cccc3F)C=CC1O2 (stereo not drawn) [Compound 228] |
| ++ | CCOC(=O)C1=C(C(=O)OCC)C2(C(Cc3ccccc3)Nc3c(F)cccc3F)C=CC1O2 (stereo not drawn) [Compound 230] |
| +++ | CCOC(=O)C1=C(C(=O)OCC)C2(C(Cc3ccccc3)Nc3ccccc3)C=CC1O2 (stereo not drawn) [Compound 232] |
| ++ | CCOC(=O)C1=C(C(=O)OCC)C2(C(Cc3ccccc3)Nc3cc(F)cc(F)c3)C=CC1O2 (stereo not drawn) [Compound 234] |
| ++ | COC(=O)C1=C(C(=O)OC)C2(C(Cc3ccccc3)N(C)c3ccccc3)C=CC1O2 (stereo not drawn) [Compound 236] |
| + | COC(=O)C1=C(C(=O)OC)C2(C(Cc3ccccc3)N(C)c3c(F)cccc3F)C=CC1O2 (stereo not drawn) [Compound 237] |
| + | COC(=O)C1=C(C(=O)NCCCCCNC(=O)OCC2c3ccccc3-c3ccccc32)C2C=CC1(C(Cc1ccccc1)Nc1cc(F)cc(F)c1)O2 (stereo not drawn) [Compound 244] |
| + | CCOc1cccc(NC(Cc2ccccc2)C23C=CC(O2)C(C(=O)O)=C3C(=O)OC)c1 (stereo not drawn) [Compound 246] |
| ++ | CCOc1cccc(NC(Cc2ccccc2)C23C=CC(O2)C(C(=O)NC)=C3C(=O)OC)c1 (stereo not drawn) [Compound 250] |
| + | COC(=O)C1=C(C(=O)NC2CCN(C(=O)OC(C)(C)C)CC2)C2C=CC1(C(Cc1ccccc1)Nc1cc(F)cc(F)c1)O2 (stereo not drawn) [Compound 255] |
| ++ | COC(=O)C1=C(C(=O)OC)C2(C(Cc3ccccc3)Nc3ccccc3)C=CC1(C)O2 (stereo not drawn) [Compound 259] |
| ++ | CCOC(=O)C1=C(C(=O)OCC)C2(C(Cc3ccccc3)Nc3ccccc3)C=CC1(CO)O2 (stereo not drawn) [Compound 265] |
| + | COC(=O)C1=C(C(=O)NC2CCN(C)CC2)C2(C)C=CC1(C(Cc1ccccc1)Nc1ccccc1)O2 (stereo not drawn) [Compound 268] |
| ++ | CCOC(=O)C1=C(C(=O)NC2CCN(C)CC2)C2(CO)C=CC1(C(Cc1ccccc1)Nc1ccccc1)O2 (stereo not drawn) [Compound 269] |
| ++ | COC(=O)C1=C(C(=O)OC)C2(C(Cc3ccccc3)Nc3ccccc3F)C=CC1O2 (stereo not drawn) [Compound 270] |
| ++ | COC(=O)C1=C(C(=O)OC)C2(C(Cc3ccccc3)Oc3ccccc3)C=CC1O2 (stereo not drawn) [Compound 271] |
| ++ | COC(=O)C1=C(C(=O)OC)C2(C(Cc3ccccc3)Nc3ccc(F)cc3)C=CC1O2 (stereo not drawn) [Compound 273] |
| +++ | COC(=O)C1=C(C(=O)NC2CCOCC2)C2C=CC1(C(Cc1ccccc1)Nc1ccccc1)O2 (stereo not drawn) [Compound 275] |

| SUMO | Structure (SMILES) |
| --- | --- |
| ++ | COC(=O)C1=CC2(C(Cc3ccccc3)N(C)c3ccccc3)C=CC1O2 (stereo not drawn) [Compound 284] |
| ++ | COC(=O)C1=C(C(=O)OC2CCN(C)CC2)C2C=CC1(C(Cc1ccccc1)Nc1ccccc1)O2 (stereo not drawn) [Compound 286] |
| + | COC(=O)C1=C(C(=O)NC2CCN(c3ccccc3)CC2)C2C=CC1(C(Cc1ccccc1)Nc1ccccc1)O2 (stereo not drawn) [Compound 290] |
| ++ | COC(=O)C1=C(C(=O)Nc2ccc(N3CCN(C)CC3)cc2)C2C=CC1(C(Cc1ccccc1)Nc1ccccc1)O2 (stereo not drawn) [Compound 291] |
| ++ | CNC(=O)C1=C(C(=O)OC)C2(C(Cc3ccccc3)Nc3ccccc3)C=CC1(C)O2 (stereo not drawn) [Compound 293] |
| ++ | COC(=O)C1=C(C(N)=O)C2(C)C=CC1(C(Cc1ccccc1)Nc1ccccc1)O2 (stereo not drawn) [Compound 294] |
| ++ | COC(=O)C1=C(C(=O)NNc2ccccc2)C2(C)C=CC1(C(Cc1ccccc1)Nc1ccccc1)O2 (stereo not drawn) [Compound 295] |
| ++ | COC(=O)C1=C(C(=O)Nc2ccc(Oc3ccccc3)cc2)C2C=CC1(C(Cc1ccccc1)Nc1ccccc1)O2 (stereo not drawn) [Compound 296] |
| ++ | COC(=O)C1=C(C(=O)OC)C2(C(Cc3ccccc3)Nc3ccccc3)CC(O)C1O2 (stereo not drawn) [Compound 302] |
| ++ | COC(=O)C1=C(C(=O)NC2CCN(C)CC2)C2CCC1(C(Cc1ccccc1)Nc1cc(F)cc(F)c1)O2 (stereo not drawn) [Compound 303] |
| ++ | COC(=O)C1=C(C(=O)Nc2ccc(C)c(F)c2)C2C=CC1(C(Cc1ccccc1)Nc1ccc(F)cc1)O2 (stereo not drawn) [Compound 346] |
| ++ | COC(=O)C1=C(C(=O)Nc2ccc(C)c(F)c2)C2C=CC1(C(Cc1ccccc1)Oc1ccccc1)O2 (stereo not drawn) [Compound 347] |
| + | CCCCC(Nc1cc(F)cc(F)c1)C12C=CC(O1)C(C(=O)NCCN(C)C)=C2C(=O)OC (stereo not drawn) [Compound 397] |
| + | CCCCC(Nc1cc(F)cc(F)c1)C12C=CC(O1)C(C(=O)NCCN(CC)CC)=C2C(=O)OC (stereo not drawn) [Compound 398] |
| ++ | C=CCC(Nc1ccccc1)C12C=CC(O1)C(C(=O)OC)=C2C(=O)OC (stereo not drawn) [Compound 407] |
| + | COC(=O)C1=C(C(=O)OC)C2(C(Nc3ccccc3)c3ccc(CN4CCOCC4)cc3)C=CC1O2 (stereo not drawn) [Compound 413] |
| +++ | COC(=O)C1=C(C(=O)OC)C2(C(Cc3ccc(F)cc3)Nc3cc(F)cc(Cl)c3)C=CC1O2 (stereo not drawn) [Compound 451] |
| +++ | COC(=O)C1=C(C(=O)OC)C2(C(Cc3ccccc3F)Nc3cc(F)cc(F)c3)C=CC1O2 (stereo not drawn) [Compound 454] |
| ++ | COC(=O)C1=C(C(=O)Nc2ccc(OC)cc2)C2C=CC1(C(Cc1ccccc1)Oc1ccc(F)cc1)O2 (stereo not drawn) [Compound 479] |
| + | COC(=O)C1=C(C(=O)OC)C2(C(Cc3ccccc3)Oc3cccnc3)C=CC1O2 (stereo not drawn) [Compound 482] |
| + | COC(=O)C1=C(C(=O)Nc2ccc(C)c(F)c2)C2C=CC1(C(Cc1ccccc1)Oc1cccnc1)O2 (stereo not drawn) [Compound 484] |
